According to patent publication US7838552B2, “Compositions comprising nebivolol” (Forest Laboratories Holdings Limited, priority 2004, dated 2010):

Tested on: Black donor endothelial cells (HUVEC)
Assay: NO release from HUVEC of Black donors, measured with a porphyrinic nanosensor
Format: cell-based, Human
Conditions: for magnitude of the increase in NO release, Black versus White donor cells: chronic ACE inhibitor treatment followed by nebivolol 1 μM, FIG. 2 and FIG. 4
Description: All measurements presented were recorded in vitro using a sensitive porphyrinic probe, as previously described. Malinski T, Taha Z., Nature. 1992; 358:676-678; Malinski T, Czuchajowski L., Methods in Nitric Oxide Research. 1996:319-339. NO release was measured directly from HUVEC. HUVEC cells from Black and White donors were grown in Ham's F12K medium with 2 mM L-glutamine adjusted to contain 1.5 g/L sodium bicarbonate and supplemented with 0.1 mg/ml heparin and 0.03-0.05 mg/ml endothelial cell growth supplement (ECGS) +10% fetal bovine serum. The HUVEC cells were kept in an atmosphere of elevated CO2 concentration (5%). Nebivolol was obtained from Mylan Laboratories (Morgantown, W.Va.).
All measurements of endothelial NO release were conducted in Hank's balance solution at 37° C. Cell wells were transferred to a Faraday cage and a porphyrinic sensor (diameter 0.5 mm) was positioned at a distance of 5±2 μm from the surface of the endothelial cells using an inverted microscope (Leica Microsystems, Wetzlar, Germany) and a computer-assisted micromanipulator. The sensor operated with a three-electrode system: nanosensor (working electrode), saturated calomel electrode (reference electrode) and platinum wire (counter electrode, 0.5 mm diameter). The three electrodes were connected to a potentiostat/galvanostat PAR273. The baseline was stabilized after about 20 seconds. The test compounds were injected with a nanoinjector onto the surface of the cells following solubilization in buffer. Cells were incubated with the test compounds for a 24-hour period. The compounds were then washed out of the system before being immediately reintroduced in order to evaluate the consequences of chronic treatment on NO release from the cells. For additive experiments, cells were incubated with ACE inhibitor for 24 hours, the inhibitor was washed out of the system, nebivolol was added and the NO release measured. The current proportional to the NO concentration was measured with the sensor, which operated in amperometric mode at a constant potential of 0.63V. Data were acquired with the use of an IBM computer with custom software and amperograms (current vs. time curves) were recorded with a Guniry FAS1 Femtostat (Warminster, Pa.). Maximum release of NO was produced using a calcium agonist (1 μM). By increasing cytoplasmic levels of calcium, the ion can bind to calmodulin. The Ca2+-calmodulin complex is a cofactor for endothelial NO synthase, along with FAD, FMN, Heme and BH4.
Nanosensors were prepared from carbon fibers. The size of the tip of carbon fiber was reduced from 6 μm to less than 1 μm by temperature controlled burning. The sensors were sensitized to NO by deposition of electrically conductive polymeric porphyrin and covered with a thin layer of Nafion. […]

## CCOC(=O)[C@H](CCc1ccccc1)N[C@@H](C)C(=O)N1CCC[C@H]1C(=O)O [enalapril]
Black donor cells, chronic (24 h) enalapril 5 and 10 μM, then nebivolol 1 μM, FIG. 3
  enhancement of the ability of nebivolol to increase NO release: significantly enhanced
  magnitude of the increase in NO release, Black versus White donor cells: greater in endothelial cells from Blacks than Whites

## C[C@H](N[C@@H](CCc1ccccc1)C(=O)O)C(=O)N1[C@H](C(=O)O)C[C@@H]2CCC[C@@H]21 [ramiprilat]
Black donor cells, chronic (24 h) ramiprilat 1, 5 and 10 μM, washed out, then nebivolol 1 μM, FIG. 1
  effect on the ability of nebivolol to increase NO release: modest but significant effects
  magnitude of the increase in NO release, Black versus White donor cells: greater in endothelial cells from Black donors
